The record followed here is ChEMBL document CHEMBL1201862, “PubChem BioAssay data set” (2004).

The nature of data set [1]: NIH-3T3 fibroblast cytotoxicity, dose response, cytotoxicity control, cell-based, fluorescence, Alamar Blue, secondary assay (AID 2327).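 Also: NIH-3T3 mouse fibroblasts cultured with fluconazole at 8 µg/mL.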 The class given is functional.
Data set [2] is described as follows: C. albicans growth with fluconazole, confirmation, fluorescence, retest (AID 2467). The class given is functional, cell-based.
Data set [3] deals with T1, Short transient receptor potential channel 4 (Mus musculus, UniProt Q9QUQ5).
T1 sequence (Q9QUQ5 whole entry): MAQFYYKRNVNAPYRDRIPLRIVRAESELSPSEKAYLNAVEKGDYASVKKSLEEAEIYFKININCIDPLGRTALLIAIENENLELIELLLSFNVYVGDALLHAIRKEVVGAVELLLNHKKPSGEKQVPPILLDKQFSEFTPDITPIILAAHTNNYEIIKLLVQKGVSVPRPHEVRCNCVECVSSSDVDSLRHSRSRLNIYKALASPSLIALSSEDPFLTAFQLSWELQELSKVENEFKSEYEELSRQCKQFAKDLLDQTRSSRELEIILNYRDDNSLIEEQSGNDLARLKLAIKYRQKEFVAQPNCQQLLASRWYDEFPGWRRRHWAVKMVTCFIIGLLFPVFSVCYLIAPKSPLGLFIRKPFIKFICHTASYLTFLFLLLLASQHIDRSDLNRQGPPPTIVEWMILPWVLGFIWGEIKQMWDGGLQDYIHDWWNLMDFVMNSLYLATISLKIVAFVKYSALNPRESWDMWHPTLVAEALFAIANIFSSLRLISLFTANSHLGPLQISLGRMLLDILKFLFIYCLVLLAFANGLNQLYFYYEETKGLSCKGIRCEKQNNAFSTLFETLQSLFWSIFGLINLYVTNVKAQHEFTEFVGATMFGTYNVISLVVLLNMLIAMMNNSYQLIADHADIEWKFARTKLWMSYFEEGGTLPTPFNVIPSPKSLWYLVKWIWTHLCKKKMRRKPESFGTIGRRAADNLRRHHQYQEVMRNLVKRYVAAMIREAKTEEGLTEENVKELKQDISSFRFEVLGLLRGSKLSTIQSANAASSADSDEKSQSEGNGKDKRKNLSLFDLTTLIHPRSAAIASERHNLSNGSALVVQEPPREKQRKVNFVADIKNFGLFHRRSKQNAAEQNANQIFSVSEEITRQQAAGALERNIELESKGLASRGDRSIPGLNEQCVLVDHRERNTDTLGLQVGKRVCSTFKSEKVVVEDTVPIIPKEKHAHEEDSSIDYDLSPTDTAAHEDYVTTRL
As to the kind of experiment: mouse TRPC4 channel activators, dose response, cell-based, HEK293 TRPC4/mu-opioid, Fluo-4 calcium (AID 434937). The class given is functional.

Another data set addresses Cytochrome P450 2C9 (Homo sapiens, UniProt P11712).
Data set [4] has as its system Streptococcus sp. 'group A'. The experiment in a line: growth inhibition of control SK(-) GAS strain, dose response, counter-screen for streptokinase expression inhibitor project, luminescence, kanamycin, BacTiterGlo, confirmation (AID 1900). The class given is functional, organism-based. On the technique in general: Counterscreens check selectivity or assay interference.

In a further data set the target is T2, Streptokinase A (Streptococcus pyogenes serotype M1, UniProt P10520).
T2 sequence (P10520 whole entry): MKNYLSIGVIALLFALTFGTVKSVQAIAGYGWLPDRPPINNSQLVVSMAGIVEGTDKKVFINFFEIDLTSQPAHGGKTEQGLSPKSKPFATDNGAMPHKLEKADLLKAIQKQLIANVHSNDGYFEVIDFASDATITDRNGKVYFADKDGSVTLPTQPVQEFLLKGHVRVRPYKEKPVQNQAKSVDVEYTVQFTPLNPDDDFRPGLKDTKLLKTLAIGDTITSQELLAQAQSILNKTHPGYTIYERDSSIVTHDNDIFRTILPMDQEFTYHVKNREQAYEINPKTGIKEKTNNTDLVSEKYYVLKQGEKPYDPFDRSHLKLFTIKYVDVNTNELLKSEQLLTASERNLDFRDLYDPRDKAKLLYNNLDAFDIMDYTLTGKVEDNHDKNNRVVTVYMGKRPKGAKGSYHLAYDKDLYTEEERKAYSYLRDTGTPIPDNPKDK
The experiment in a line: S. pyogenes streptokinase expression inhibitors, potency, dose response, plasminogen activation absorbance, OD405 (AID 1914).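 Also: secreted streptokinase activity via plasminogen activation per viability signal from cell pellet.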 The class given is functional, Streptococcus pyogenes M1 GAS.

A further data set has as its system Streptococcus. As to the kind of experiment: Group A Streptococcus viability loss, dose response, counter-screen for streptokinase expression inhibitor project, luminescence, BacTiterGlo (AID 1915).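 Also: potency for reduction of bacterial viability or growth.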 Format: functional, organism-based.
Data set [5] has as its target Voltage-dependent T-type calcium channel subunit alpha-1H (Homo sapiens, UniProt O95180). Format: functional.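 Also: channel activity triggered by adding a high calcium stimulation buffer.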
A short description of data set [6]: Luminescence Cell-Based Dose Retest to Confirm Inhibitors of Cancer Stem Cells. [Related pubchem assays (depositor defined):AID2717, AID2721]. Format: functional. The note with it: Homo sapiens.
Data set [7] concerns the target DNA dC->dU-editing enzyme APOBEC-3A (Homo sapiens, UniProt P31941). The experiment in a line: Dose Response confirmation of small molecule APOBEC3A DNA Deaminase Inhibitors via a fluorescence-based single-stranded DNA deaminase assay. [Related pubchem assays (depositor defined):AID493011, AID493024]. The class given is functional.
Data set [8] deals with DNA dC->dU-editing enzyme APOBEC-3G (Homo sapiens, UniProt Q9HC16). The class given is functional.
Chain of DNA dC->dU-editing enzyme APOBEC-3G (Q9HC16 whole entry): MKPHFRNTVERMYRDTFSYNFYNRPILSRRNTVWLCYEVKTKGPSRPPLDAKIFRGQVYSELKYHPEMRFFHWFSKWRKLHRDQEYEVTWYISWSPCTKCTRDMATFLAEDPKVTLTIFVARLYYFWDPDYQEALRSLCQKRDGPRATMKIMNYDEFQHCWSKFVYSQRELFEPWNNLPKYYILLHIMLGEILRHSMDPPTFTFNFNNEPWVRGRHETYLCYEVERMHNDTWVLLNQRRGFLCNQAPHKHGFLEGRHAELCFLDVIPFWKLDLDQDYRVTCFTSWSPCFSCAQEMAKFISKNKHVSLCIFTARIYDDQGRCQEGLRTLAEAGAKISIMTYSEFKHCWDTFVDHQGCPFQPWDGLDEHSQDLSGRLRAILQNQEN
Data set [9] in a line: inhibitors of firefly luciferase expression or activity, dose response, H4 neuroglioma cells, luminescence (AID 1990). The class given is functional, cell-based.
Data set [10] in a line: Luminescence Cell-Based Dose Response HTS to Identify Inhibitors of 5'UTR Stem-Loop Driven Prion Protein mRNA Translation in H4 Neuroglioblastoma Cells. [Related pubchem assays: 1827 (Project Summary), 1813 (Primary HTS)]. The class given is functional.
The nature of data set [11]: inhibitors of SNCA 5'UTR-driven reporter translation, confirmation, H4 neuroglioma cells, luminescence (AID 1988). Format: functional, cell-based.
Data set [12] addresses Glucose-6-phosphate 1-dehydrogenase (Homo sapiens, UniProt P11413). The experiment in a line: human G6PD enzyme inhibitors, dose response, selectivity assay for P. falciparum G6PD inhibitor project, biochemical, fluorescence (AID 504792). The class given is functional.
Another data set has as its target Cytochrome P450 2C19 (Homo sapiens, UniProt P33261). The experiment in a line: Cytochrome panel assay with activity outcomes. Panel member name: p450-cyp2c19 Compounds with AC50 equal or less than 10 uM are considered active. The class given is functional. The note with it: read-out: AC50.
The target of data set [13] is T3, Histone-lysine N-methyltransferase NSD2 (Homo sapiens, UniProt O96028).
T3 sequence (O96028 whole entry): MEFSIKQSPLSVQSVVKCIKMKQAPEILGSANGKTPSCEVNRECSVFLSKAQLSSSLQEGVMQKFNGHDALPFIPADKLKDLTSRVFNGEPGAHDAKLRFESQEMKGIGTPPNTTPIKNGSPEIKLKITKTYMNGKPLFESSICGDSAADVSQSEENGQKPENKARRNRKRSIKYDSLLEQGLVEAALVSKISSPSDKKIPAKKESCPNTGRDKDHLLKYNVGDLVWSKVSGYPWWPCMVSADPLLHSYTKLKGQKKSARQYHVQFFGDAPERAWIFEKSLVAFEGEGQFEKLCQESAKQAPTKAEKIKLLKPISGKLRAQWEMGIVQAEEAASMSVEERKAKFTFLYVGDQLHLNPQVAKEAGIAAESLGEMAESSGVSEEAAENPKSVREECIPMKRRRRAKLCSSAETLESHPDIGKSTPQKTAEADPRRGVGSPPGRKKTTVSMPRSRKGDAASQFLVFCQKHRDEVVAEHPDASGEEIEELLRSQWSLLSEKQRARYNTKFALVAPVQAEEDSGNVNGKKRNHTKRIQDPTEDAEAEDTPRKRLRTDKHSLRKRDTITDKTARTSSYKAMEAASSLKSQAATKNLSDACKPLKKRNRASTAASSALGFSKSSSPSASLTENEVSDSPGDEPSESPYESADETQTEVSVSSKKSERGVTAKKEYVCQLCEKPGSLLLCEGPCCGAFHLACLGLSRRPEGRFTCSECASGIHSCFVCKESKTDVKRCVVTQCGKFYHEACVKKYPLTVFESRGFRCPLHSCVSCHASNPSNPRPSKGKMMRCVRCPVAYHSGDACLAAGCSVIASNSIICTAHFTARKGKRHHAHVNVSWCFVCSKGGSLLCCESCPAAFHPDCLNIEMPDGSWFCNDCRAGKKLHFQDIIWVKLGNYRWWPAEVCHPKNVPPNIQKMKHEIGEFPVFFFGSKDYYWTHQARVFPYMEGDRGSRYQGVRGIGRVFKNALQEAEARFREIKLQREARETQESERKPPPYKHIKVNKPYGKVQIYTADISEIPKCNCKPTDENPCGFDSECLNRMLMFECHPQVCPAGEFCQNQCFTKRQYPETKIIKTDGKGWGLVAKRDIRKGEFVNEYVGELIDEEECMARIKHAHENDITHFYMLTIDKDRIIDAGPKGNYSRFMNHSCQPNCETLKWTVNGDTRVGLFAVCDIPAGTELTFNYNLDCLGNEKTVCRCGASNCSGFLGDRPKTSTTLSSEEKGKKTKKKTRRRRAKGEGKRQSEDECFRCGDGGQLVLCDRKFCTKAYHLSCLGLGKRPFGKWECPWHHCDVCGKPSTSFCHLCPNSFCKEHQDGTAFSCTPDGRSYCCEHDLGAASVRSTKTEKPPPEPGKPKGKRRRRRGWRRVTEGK
The class given is biochemical.

In a further data set the target is T4, Leucine aminopeptidase (Plasmodium falciparum 3D7, UniProt Q8IL11).
T4 sequence (Q8IL11 whole entry): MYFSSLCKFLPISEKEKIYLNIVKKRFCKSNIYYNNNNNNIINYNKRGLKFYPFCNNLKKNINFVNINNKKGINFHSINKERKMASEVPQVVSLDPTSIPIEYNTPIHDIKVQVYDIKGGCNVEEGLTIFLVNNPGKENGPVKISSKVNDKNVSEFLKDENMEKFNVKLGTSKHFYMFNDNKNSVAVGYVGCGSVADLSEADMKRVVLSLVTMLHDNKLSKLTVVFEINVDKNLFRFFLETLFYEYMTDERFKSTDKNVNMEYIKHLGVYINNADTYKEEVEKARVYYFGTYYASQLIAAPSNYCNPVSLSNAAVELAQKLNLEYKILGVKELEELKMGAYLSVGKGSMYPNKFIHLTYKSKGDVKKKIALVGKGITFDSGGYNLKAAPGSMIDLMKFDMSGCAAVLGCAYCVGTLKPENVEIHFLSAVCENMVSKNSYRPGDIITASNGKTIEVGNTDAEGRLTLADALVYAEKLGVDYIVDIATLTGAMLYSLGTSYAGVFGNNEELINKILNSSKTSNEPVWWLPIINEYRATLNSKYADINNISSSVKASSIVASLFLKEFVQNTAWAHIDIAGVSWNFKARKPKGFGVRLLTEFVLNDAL
As to the kind of experiment: P. falciparum M17LAP inhibitors, primary screen, biochemical, fluorogenic H-Leu-NHMec substrate, 1536-well (AID 1619). The class given is functional.

Molecules are shown by their SMILES. Calls of active or inactive are those of the source.

Chain of Cytochrome P450 2C9 (P11712 whole entry): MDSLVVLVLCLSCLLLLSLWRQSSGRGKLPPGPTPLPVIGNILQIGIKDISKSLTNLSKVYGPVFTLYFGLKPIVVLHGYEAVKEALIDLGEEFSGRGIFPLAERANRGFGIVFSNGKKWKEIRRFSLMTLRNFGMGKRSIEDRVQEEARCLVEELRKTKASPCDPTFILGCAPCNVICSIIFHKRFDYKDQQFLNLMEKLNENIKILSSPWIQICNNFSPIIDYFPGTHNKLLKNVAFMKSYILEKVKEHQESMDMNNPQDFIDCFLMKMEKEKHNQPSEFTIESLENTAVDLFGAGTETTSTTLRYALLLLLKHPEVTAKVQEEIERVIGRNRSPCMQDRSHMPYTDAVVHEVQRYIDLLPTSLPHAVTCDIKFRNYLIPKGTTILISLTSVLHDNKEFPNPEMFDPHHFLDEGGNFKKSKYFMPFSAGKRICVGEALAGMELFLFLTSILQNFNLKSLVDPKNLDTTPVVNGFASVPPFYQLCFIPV
Chain of DNA dC->dU-editing enzyme APOBEC-3A (P31941 whole entry): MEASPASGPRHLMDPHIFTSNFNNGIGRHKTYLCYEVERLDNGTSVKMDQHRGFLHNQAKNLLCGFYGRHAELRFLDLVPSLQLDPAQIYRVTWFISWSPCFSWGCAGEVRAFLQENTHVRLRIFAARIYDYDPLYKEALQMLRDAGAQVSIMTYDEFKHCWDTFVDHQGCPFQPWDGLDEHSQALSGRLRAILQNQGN
Chain of Glucose-6-phosphate 1-dehydrogenase (P11413 whole entry): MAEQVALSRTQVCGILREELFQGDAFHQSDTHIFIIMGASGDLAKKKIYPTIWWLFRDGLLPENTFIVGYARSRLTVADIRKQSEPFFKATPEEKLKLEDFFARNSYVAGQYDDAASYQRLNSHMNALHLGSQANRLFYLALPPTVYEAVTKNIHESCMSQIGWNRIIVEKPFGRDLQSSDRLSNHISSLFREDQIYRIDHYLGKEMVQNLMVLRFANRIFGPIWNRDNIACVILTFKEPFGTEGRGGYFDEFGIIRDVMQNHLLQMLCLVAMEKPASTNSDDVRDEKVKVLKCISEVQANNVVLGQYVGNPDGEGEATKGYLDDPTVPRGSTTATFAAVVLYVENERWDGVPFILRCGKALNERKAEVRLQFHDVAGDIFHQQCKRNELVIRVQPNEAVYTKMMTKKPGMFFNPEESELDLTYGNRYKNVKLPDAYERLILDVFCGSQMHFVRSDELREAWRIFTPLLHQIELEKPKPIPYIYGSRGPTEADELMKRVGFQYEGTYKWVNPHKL
Chain of Cytochrome P450 2C19 (P33261 whole entry): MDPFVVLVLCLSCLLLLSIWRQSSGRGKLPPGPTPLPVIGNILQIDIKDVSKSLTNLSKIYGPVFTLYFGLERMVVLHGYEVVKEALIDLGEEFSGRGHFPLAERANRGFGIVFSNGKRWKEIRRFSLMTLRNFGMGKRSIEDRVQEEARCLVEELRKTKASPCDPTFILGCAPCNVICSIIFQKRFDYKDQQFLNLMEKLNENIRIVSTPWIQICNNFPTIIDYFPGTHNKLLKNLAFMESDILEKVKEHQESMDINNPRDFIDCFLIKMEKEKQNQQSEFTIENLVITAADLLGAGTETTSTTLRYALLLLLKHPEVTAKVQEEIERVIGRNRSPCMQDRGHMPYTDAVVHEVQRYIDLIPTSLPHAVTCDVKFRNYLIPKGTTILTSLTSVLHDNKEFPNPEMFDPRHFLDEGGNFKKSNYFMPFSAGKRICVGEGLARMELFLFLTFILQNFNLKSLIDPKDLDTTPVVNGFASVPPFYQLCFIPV
Chain of Voltage-dependent T-type calcium channel subunit alpha-1H (O95180 whole entry): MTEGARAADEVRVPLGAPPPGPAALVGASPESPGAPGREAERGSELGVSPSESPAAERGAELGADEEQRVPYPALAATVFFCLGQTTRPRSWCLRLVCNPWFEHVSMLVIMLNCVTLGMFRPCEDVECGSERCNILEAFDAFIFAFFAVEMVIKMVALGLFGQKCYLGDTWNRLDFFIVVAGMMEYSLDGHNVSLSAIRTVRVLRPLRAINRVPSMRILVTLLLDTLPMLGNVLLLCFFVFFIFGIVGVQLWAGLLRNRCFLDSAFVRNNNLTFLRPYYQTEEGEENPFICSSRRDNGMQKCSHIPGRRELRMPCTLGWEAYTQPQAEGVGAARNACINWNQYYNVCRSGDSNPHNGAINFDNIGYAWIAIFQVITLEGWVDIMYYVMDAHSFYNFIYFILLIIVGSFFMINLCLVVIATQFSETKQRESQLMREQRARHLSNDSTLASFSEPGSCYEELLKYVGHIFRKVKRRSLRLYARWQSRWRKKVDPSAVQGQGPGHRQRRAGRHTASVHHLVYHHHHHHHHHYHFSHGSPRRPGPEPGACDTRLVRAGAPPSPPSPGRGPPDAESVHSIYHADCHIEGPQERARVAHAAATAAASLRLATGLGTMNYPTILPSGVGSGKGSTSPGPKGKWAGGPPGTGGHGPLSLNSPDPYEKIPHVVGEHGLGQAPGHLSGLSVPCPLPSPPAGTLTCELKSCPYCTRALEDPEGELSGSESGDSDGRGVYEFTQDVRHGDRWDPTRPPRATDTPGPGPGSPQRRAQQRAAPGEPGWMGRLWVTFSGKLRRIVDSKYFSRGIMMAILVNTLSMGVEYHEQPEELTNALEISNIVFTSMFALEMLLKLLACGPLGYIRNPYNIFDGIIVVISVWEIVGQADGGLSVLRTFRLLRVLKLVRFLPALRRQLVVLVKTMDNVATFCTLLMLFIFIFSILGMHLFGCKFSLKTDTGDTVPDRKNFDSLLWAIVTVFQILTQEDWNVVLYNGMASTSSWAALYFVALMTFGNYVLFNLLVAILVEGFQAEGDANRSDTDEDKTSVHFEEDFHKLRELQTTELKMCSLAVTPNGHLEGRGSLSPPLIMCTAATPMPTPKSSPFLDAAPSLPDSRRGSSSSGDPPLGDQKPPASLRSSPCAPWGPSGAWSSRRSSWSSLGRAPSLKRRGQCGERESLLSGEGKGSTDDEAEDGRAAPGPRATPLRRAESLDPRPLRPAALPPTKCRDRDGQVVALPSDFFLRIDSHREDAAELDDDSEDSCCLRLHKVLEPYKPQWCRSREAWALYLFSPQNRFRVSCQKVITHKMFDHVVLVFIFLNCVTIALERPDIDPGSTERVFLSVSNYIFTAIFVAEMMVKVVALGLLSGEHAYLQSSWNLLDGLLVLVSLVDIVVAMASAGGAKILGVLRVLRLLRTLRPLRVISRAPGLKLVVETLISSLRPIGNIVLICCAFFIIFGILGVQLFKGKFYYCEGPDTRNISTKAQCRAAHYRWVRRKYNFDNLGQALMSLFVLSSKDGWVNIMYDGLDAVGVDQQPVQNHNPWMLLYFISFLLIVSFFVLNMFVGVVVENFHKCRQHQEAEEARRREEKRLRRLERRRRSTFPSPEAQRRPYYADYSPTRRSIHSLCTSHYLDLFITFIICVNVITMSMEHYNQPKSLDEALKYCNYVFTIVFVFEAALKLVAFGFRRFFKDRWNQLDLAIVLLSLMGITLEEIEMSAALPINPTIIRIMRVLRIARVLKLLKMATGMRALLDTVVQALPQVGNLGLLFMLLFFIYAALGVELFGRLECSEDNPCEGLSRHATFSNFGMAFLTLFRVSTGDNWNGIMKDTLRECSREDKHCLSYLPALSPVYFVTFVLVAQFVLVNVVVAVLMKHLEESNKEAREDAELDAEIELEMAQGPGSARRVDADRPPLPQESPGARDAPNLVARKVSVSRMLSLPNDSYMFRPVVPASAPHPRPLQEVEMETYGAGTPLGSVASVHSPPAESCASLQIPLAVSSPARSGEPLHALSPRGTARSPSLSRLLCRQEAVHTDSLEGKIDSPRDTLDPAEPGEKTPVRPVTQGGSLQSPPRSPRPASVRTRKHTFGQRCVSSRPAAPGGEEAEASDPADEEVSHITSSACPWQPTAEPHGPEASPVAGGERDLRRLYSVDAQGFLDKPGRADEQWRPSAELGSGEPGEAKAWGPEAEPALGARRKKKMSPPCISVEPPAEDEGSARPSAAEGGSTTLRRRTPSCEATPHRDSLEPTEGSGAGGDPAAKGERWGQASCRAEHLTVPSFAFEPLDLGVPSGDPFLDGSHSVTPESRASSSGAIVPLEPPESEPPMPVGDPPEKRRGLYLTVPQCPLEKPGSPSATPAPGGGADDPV

As for `CCCCC(=O)NNC(=S)NC(=O)c1ccc(C)cc1`, the EC50 is > 150 µM (inconclusive) in data set [1], 1.43 µM (active) in [2] and 2.99 µM (active) in [3].

As for `O=C1Nc2ccc(F)cc2C12SCCS2`, the AC50 result at Cytochrome P450 2C9 is “inconclusive”.

Take `O/N=C(\c1ccc(Cl)cc1Cl)c1ncc(C(F)(F)F)cc1Cl`: the EC50 in data set [4] is 10.6 µM (active); on Streptokinase A it was 35.2 µM (active); in the data set on Streptococcus, > 150 µM (not active); in data set [5], 2.11 µM (active). In addition, the AC50 in [6] is 8.81 µM (active).

Turning to `CC1=CC(C)C(C[N+]2(C)CCCCC2)C(C)C1` (centres undefined), the IC50 was 6.16 µM (active) in [7] and 6.31 µM (active) in data set [8].

Take `CN(C)c1cccc2c1c(NC(=O)c1ccc(Cl)cc1)nn2C`: the EC50 in [9] is > 120 µM (not active); in data set [10], > 120 µM (not active); in data set [11], 24.2 µM (active). Moreover, the IC50 in data set [12] is > 80 µM (inactive).

In the case of `COc1ccc(NC(=O)c2cc(C(C)C)on2)cc1OC`, the AC50 at Cytochrome P450 2C19 was 20 µM (inconclusive); on Cytochrome P450 2C9, “inconclusive”.

`C[n+]1ccccc1/C=C/c1ccc2ncccc2c1`: the IC50 is 0.892 µM (active) in data set [7] and 1.92 µM (active) in data set [8].

Consider `CCOC(=O)C1(CCOc2ccccc2)CCN(Cc2ccc(NC(C)=O)cc2)CC1`, for which, in data set [3], the EC50 is 0.211 µM (active).

Take `O=[N+]([O-])c1ccc(N2CCCC2)cc1N1CCCC1`: the AC50 in [13] was > 20 µM (inactive); at Cytochrome P450 2C9, “inconclusive”.

Regarding `CCn1c(N)[n+](CC(=O)Nc2ccc(SC(F)F)cc2)c2ccccc21`, in data set [3], the EC50 was 4.22 µM (active).

As for `Cc1ccc2[nH]c(SCC(=O)NC3CCCc4ccccc43)nc2c1` (centres undefined), the IC50 in [12] is > 80 µM (inactive).

For `Cc1cc(-c2ccc(C)c(S(=O)(=O)NCCCN(Cc3ccccc3)C(C)C)c2)on1`, the half-maximal effective concentration (EC50) in data set [3] is 1.33 µM (active).

For `CC(C)CC1CCCCC1OC(=O)C[N+]1(C)CCCCC1` (centres undefined), the IC50 is 2.2 µM (active) in data set [7] and 2.29 µM (active) in data set [8].

On to `COc1ccc(NC(=O)CN2c3cccc4cccc(c34)S2(=O)=O)cc1`, for which the IC50 at Leucine aminopeptidase is 3.84 µM (active). Also, the AC50 result on Cytochrome P450 2C9 was “inconclusive”.

By EC50 is commonly meant the concentration needed to bring the measured effect to its halfway point. The term AC50 denotes the concentration at which the activity in the assay is half-maximal. A word on the IC50: it is the point on the concentration scale where inhibition reaches its midpoint.
